Assay results reported in ChEMBL document CHEMBL5649169 (ChemMedChem, 2018).

Columns and labels:
[1] = biological target: Mitogen-activated protein kinase 3 (Homo sapiens) (UniProt P27361)
[2] = biological target: G2/mitotic-specific cyclin-B1 (Homo sapiens) (UniProt P14635)
[3] = biological target: Pyridoxal kinase (Homo sapiens) (UniProt O00764)
[4] = biological target: Tricarboxylate transport protein, mitochondrial (Homo sapiens) (UniProt P53007)
[5] = biological target: Stress-induced-phosphoprotein 1 (Homo sapiens) (UniProt P31948)
[6] = biological target: Zinc finger CCCH domain-containing protein 11A (Homo sapiens) (UniProt O75152)
[7] = biological target: Arginine--tRNA ligase, cytoplasmic (Homo sapiens) (UniProt P54136)
[8] = biological target: Ephrin type-B receptor 2 (Homo sapiens) (UniProt P29323)
[9] = biological target: COP9 signalosome complex subunit 2 (Homo sapiens) (UniProt P61201)
[10] = biological target: NADH dehydrogenase [ubiquinone] 1 beta subcomplex subunit 10 (Homo sapiens) (UniProt O96000)
[11] = biological target: BMP-2-inducible protein kinase (Homo sapiens) (UniProt Q9NSY1)
[12] = biological target: ATP-dependent 6-phosphofructokinase, platelet type (Homo sapiens) (UniProt Q01813)
[13] = biological target: Hsp90 co-chaperone Cdc37 (Homo sapiens) (UniProt Q16543)
[14] = biological target: Conserved oligomeric Golgi complex subunit 7 (Homo sapiens) (UniProt P83436)
[15] = biological target: Mitogen-activated protein kinase 15 (Homo sapiens) (UniProt Q8TD08)
[16] = biological target: Telomere length regulation protein TEL2 homolog (Homo sapiens) (UniProt Q9Y4R8)
[17] = biological target: Heat shock cognate 71 kDa protein (Homo sapiens) (UniProt P11142)
[18] = biological target: Holocytochrome c-type synthase (Homo sapiens) (UniProt P53701)
Cullin-1 (Homo sapiens) = Cullin-1 (Homo sapiens) (UniProt Q13616)
[19] = biological target: THO complex subunit 4 (Homo sapiens) (UniProt Q86V81)
[20] = biological target: Solute carrier family 35 member E1 (Homo sapiens) (UniProt Q96K37)
[21] = biological target: RNA-binding protein 3 (Homo sapiens) (UniProt P98179)
[22] = biological target: SERPINE1 mRNA-binding protein 1 (Homo sapiens) (UniProt Q8NC51)
[23] = biological target: Heterogeneous nuclear ribonucleoprotein U-like protein 2 (Homo sapiens) (UniProt Q1KMD3)
[24] = biological target: Small ribosomal subunit protein eS10 (Homo sapiens) (UniProt P46783)
[25] = biological target: Small ribosomal subunit protein uS17 (Homo sapiens) (UniProt P62280)
[26] = biological target: Protein-tyrosine kinase 6 (Homo sapiens) (UniProt Q13882)
[27] = biological target: Cyclin-dependent kinase 13 (Homo sapiens) (UniProt Q14004)
[28] = biological target: 5'-AMP-activated protein kinase subunit gamma-2 (Homo sapiens) (UniProt Q9UGJ0)
[29] = biological target: Acylamino-acid-releasing enzyme (Homo sapiens) (UniProt P13798)
[30] = biological target: Dual specificity protein kinase CLK2 (Homo sapiens) (UniProt P49760)
[31] = biological target: Heat shock protein 75 kDa, mitochondrial (Homo sapiens) (UniProt Q12931)
[32] = biological target: S-phase kinase-associated protein 2 (Homo sapiens) (UniProt Q13309)
[33] = biological target: Spectrin alpha chain, non-erythrocytic 1 (Homo sapiens) (UniProt Q13813)
[34] = biological target: ADP-sugar pyrophosphatase (Homo sapiens) (UniProt Q9UKK9)
[35] = biological target: Calcium/calmodulin-dependent protein kinase type II subunit gamma (Homo sapiens) (UniProt Q13555)
[36] = biological target: Eukaryotic translation initiation factor 5B (Homo sapiens) (UniProt O60841)
[37] = biological target: Mitochondrial antiviral-signaling protein (Homo sapiens) (UniProt Q7Z434)
[38] = biological target: Threonine--tRNA ligase 1, cytoplasmic (Homo sapiens) (UniProt P26639)
[39] = biological target: Exosome complex component 10 (Homo sapiens) (UniProt Q01780)
[40] = biological target: Small nuclear ribonucleoprotein Sm D2 (Homo sapiens) (UniProt P62316)
[41] = biological target: Proteasome subunit alpha type-7 (Homo sapiens) (UniProt O14818)
[42] = biological target: Coiled-coil domain-containing protein 22 (Homo sapiens) (UniProt O60826)
[43] = biological target: Nck-associated protein 1-like (Homo sapiens) (UniProt P55160)
[44] = biological target: Protein kinase C delta type (Homo sapiens) (UniProt Q05655)
Note: assay method not described here.

Eukaryotic translation initiation factor 5B (Homo sapiens), sequence (O60841 whole entry): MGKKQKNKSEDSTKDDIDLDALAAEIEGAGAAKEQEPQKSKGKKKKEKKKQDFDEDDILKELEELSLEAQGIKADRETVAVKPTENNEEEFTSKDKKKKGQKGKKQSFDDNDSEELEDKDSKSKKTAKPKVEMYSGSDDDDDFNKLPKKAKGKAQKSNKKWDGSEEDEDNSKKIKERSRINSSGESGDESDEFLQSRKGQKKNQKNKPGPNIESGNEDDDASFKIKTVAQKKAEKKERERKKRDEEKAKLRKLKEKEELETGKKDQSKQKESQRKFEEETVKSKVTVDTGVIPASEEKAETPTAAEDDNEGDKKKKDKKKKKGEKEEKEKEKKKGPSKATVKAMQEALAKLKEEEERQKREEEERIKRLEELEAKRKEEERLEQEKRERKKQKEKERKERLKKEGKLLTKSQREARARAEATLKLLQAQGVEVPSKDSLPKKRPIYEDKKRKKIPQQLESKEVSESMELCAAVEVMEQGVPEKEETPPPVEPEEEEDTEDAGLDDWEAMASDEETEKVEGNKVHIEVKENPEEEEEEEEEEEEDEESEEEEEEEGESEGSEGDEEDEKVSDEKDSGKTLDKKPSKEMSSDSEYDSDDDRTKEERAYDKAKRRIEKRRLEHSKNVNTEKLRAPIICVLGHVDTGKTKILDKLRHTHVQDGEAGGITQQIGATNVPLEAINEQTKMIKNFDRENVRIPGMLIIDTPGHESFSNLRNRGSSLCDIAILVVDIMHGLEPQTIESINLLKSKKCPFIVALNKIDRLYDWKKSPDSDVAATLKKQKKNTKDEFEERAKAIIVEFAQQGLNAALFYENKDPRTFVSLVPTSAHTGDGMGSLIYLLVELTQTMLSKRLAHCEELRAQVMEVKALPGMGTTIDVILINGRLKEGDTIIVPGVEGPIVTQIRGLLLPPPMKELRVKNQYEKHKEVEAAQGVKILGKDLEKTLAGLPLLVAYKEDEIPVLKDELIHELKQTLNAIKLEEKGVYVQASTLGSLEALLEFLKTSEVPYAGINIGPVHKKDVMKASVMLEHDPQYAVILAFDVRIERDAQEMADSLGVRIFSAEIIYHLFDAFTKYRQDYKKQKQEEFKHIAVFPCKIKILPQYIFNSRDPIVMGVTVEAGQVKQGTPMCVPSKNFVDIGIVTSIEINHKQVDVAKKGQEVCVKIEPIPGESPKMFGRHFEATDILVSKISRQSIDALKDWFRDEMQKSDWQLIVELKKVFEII
Exosome complex component 10 (Homo sapiens), sequence (Q01780 whole entry, one chain of several): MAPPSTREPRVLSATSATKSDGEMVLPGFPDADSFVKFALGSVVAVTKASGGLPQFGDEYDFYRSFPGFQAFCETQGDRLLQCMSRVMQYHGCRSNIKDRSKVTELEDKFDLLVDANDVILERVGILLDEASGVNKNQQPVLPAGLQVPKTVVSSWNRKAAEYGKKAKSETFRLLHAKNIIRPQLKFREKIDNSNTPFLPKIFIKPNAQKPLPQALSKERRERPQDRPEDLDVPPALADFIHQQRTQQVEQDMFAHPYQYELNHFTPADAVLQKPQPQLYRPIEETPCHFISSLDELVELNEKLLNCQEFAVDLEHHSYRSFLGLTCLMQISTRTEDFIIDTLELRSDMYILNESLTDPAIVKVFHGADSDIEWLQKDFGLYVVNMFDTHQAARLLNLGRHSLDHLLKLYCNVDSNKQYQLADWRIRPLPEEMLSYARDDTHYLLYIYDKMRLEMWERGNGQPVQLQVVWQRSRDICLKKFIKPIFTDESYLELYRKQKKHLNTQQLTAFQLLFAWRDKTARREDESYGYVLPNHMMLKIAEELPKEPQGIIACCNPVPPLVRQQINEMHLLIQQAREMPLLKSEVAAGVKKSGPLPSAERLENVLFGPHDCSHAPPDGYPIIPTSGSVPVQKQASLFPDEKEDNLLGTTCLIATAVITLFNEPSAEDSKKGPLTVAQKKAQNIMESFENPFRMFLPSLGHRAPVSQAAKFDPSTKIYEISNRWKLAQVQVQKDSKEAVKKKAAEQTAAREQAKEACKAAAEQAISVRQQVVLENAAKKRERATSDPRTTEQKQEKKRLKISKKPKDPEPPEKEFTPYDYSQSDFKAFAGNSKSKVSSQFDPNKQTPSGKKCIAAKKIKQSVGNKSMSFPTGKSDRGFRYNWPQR
RNA-binding protein 3 (Homo sapiens), sequence (P98179 whole entry): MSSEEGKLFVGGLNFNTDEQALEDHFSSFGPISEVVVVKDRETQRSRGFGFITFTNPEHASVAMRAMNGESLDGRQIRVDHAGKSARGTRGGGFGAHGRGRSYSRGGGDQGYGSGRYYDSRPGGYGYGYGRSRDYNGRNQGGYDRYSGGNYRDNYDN
Mitogen-activated protein kinase 15 (Homo sapiens), sequence (Q8TD08 whole entry): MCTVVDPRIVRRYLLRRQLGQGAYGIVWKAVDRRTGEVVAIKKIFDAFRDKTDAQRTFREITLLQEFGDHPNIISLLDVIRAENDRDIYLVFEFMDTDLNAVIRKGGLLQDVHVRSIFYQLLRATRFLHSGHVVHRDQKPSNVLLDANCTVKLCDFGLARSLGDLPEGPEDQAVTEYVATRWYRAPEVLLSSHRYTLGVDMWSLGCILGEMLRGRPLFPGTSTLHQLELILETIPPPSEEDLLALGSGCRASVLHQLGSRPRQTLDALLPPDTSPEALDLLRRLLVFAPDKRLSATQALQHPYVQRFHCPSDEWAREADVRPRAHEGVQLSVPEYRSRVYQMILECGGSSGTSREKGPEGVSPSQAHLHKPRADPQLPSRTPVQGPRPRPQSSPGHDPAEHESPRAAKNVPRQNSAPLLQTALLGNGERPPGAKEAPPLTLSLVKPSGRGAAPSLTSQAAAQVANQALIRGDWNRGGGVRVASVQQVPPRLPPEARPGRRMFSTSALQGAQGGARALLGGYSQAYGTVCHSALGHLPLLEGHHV
Holocytochrome c-type synthase (Homo sapiens), sequence (P53701 whole entry): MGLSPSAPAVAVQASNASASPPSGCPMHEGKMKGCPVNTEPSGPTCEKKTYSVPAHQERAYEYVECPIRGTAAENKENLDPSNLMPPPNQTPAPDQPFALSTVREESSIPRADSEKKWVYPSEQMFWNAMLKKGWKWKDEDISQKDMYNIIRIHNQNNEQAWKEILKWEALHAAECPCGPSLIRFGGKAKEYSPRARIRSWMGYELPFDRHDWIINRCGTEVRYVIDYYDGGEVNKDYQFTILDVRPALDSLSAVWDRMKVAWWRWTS
ATP-dependent 6-phosphofructokinase, platelet type (Homo sapiens), sequence (Q01813 whole entry): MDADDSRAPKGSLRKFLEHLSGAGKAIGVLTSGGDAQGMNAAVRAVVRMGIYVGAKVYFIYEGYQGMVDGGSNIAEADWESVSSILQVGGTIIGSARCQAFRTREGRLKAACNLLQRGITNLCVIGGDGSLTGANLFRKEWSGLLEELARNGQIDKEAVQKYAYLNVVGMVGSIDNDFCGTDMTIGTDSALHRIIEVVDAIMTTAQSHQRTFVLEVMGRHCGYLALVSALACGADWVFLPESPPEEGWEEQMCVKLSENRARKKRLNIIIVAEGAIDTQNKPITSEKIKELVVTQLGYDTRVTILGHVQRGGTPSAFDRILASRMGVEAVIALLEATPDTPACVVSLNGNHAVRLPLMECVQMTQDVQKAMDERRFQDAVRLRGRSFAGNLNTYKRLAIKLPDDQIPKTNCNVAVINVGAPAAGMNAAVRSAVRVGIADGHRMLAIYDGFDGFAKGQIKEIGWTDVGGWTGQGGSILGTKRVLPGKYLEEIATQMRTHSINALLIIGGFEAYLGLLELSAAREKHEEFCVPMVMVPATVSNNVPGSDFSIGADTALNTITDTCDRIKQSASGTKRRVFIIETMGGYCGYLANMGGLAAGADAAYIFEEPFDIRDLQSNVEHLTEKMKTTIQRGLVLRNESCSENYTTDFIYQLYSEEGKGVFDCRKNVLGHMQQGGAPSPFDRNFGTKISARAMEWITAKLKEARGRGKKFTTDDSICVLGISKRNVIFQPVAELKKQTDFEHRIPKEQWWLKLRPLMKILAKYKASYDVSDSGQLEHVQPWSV
COP9 signalosome complex subunit 2 (Homo sapiens), sequence (P61201 whole entry, one chain of several): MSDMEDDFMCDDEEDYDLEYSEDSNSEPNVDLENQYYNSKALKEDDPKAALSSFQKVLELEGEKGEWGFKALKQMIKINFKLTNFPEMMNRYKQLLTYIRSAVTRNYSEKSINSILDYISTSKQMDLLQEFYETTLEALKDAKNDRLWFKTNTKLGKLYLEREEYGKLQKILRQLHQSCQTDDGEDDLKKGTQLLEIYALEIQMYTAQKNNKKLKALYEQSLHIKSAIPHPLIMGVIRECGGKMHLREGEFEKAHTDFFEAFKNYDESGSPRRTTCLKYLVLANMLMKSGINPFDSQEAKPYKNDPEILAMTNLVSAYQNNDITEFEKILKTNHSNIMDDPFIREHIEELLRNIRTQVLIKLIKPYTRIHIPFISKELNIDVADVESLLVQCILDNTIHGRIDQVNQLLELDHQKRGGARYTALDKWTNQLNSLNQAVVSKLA
Threonine--tRNA ligase 1, cytoplasmic (Homo sapiens), sequence (P26639 whole entry): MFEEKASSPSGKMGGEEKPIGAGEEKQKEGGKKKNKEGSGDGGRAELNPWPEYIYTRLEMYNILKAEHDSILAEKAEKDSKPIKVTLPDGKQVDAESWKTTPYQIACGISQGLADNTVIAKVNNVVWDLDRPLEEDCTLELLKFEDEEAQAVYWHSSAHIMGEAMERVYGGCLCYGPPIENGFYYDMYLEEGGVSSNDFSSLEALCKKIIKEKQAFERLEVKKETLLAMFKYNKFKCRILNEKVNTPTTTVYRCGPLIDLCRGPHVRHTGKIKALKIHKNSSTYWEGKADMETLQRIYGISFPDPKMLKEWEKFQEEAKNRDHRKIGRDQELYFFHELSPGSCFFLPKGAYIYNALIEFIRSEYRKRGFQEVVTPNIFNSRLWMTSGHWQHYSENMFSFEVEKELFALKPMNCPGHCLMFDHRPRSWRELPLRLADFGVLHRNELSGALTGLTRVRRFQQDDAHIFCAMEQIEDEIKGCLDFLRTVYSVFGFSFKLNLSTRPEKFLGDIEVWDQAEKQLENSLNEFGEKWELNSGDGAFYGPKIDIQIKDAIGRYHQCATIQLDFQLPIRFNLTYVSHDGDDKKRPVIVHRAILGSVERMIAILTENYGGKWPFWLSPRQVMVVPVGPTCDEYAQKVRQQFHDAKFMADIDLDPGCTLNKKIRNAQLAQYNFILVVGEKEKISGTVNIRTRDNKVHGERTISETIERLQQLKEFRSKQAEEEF

How did the ED50 [1] turn out when `Cc1ccc(C(=O)Nc2cccc(C(F)(F)F)c2)cc1Nc1nc(-c2cccnc2)nc2c1cnn2C` was run?
The ED50 was 0.0457 µM.

What about the ED50 [2] of the same compound?
Its ED50 is 0.205 µM.

What about the ED50 [3] of the same compound?
Its ED50 is 0.00509 µM.

What about the ED50 [4] of the same compound?
Its ED50 is 4.38 µM.

What about the ED50 [5] of the same compound?
Its ED50 is 3.83 µM.

What about the ED50 [6] of the same compound?
The ED50 was 0.149 µM.

And the ED50 [7]?
The ED50 was 0.886 µM.

And the ED50 [8]?
The ED50 was 2.94 µM.

And the ED50 [9]?
Its ED50 is 24.6 µM.

What about the ED50 [10] of the same compound?
Its ED50 is 1.17 µM.

What about the ED50 [11] of the same compound?
Its ED50 is 0.0018 µM.

What about the ED50 [12] of the same compound?
Its ED50 is 9.49 µM.

What about the ED50 [13] of the same compound?
Its ED50 is 3.55 µM.

And the ED50 [14]?
Its ED50 is 0.018 µM.

And the ED50 [15]?
The ED50 was 0.026 µM.

And the ED50 [16]?
Its ED50 is 0.665 µM.

And the ED50 [17]?
The ED50 was 0.121 µM.

What about the ED50 [18] of the same compound?
The ED50 was 0.0888 µM.

What about the ED50 (Cullin-1 (Homo sapiens)) of the same compound?
The ED50 was 0.000443 µM.

What about the ED50 [19] of the same compound?
The ED50 was 70.3 µM.

What about the ED50 [20] of the same compound?
The ED50 was 0.00439 µM.

And the ED50 [21]?
Its ED50 is 13.5 µM.

And the ED50 [22]?
Its ED50 is 0.0274 µM.

And the ED50 [23]?
The ED50 was 32000 µM.

What about the ED50 [24] of the same compound?
The ED50 was 0.042 µM.

What about the ED50 [25] of the same compound?
Its ED50 is 0.0251 µM.

What about the ED50 [26] of the same compound?
Its ED50 is 5.95 µM.

What about the ED50 [27] of the same compound?
Its ED50 is 17.8 µM.

What about the ED50 [28] of the same compound?
The ED50 was 57.4 µM.

And the ED50 [29]?
The ED50 was 0.0282 µM.

And the ED50 (Homo sapiens)?
Its ED50 is 1.18 µM.

And the ED50 [30]?
The ED50 was 117 µM.

What about the ED50 [31] of the same compound?
Its ED50 is 7.63 µM.

And the ED50 [32]?
The ED50 was 4.82 µM.

What about the ED50 [33] of the same compound?
The ED50 was 0.08 µM.

What about the ED50 [34] of the same compound?
The ED50 was 3.76 µM.

And the ED50 [35]?
Its ED50 is 0.177 µM.

What about the ED50 [36] of the same compound?
Its ED50 is 41.8 µM.

And the ED50 [37]?
The ED50 was 5.26 µM.

And the ED50 [38]?
The ED50 was 0.00531 µM.

What about the ED50 [39] of the same compound?
The ED50 was 0.0037 µM.

What about the ED50 [40] of the same compound?
Its ED50 is 42.7 µM.

And the ED50 [41]?
The ED50 was 94.2 µM.

And the ED50 [42]?
The ED50 was 2.25 µM.

What about the ED50 [43] of the same compound?
The ED50 was 41.5 µM.

And the ED50 [44]?
The ED50 was 3.81 µM.

For `Cc1ccc(C(=O)Nc2cccc(C(F)(F)F)c2)cc1Nc1nc(-c2cccnc2)nc2nn(C)cc12`, which ED50 [1] is on record?
The ED50 was 2500 µM.

And the ED50 [2]?
Its ED50 is 5.61 µM.

What about the ED50 [3] of the same compound?
Its ED50 is 1.19 µM.

And the ED50 [4]?
Its ED50 is 4.79 µM.

And the ED50 [5]?
The ED50 was 0.0577 µM.

What about the ED50 [6] of the same compound?
Its ED50 is 3.88 µM.

And the ED50 [7]?
Its ED50 is 0.443 µM.

And the ED50 [8]?
Its ED50 is 6.16 µM.

And the ED50 [9]?
The ED50 was 79.4 µM.

What about the ED50 [10] of the same compound?
The ED50 was 0.0999 µM.

And the ED50 [11]?
The ED50 was 0.11 µM.

What about the ED50 [12] of the same compound?
The ED50 was 0.00571 µM.

And the ED50 [13]?
Its ED50 is 0.00871 µM.

And the ED50 [14]?
Its ED50 is 3.71 µM.

What about the ED50 [15] of the same compound?
Its ED50 is 0.0373 µM.

And the ED50 [16]?
Its ED50 is 0.000314 µM.

And the ED50 [17]?
Its ED50 is 1.76 µM.

And the ED50 [18]?
Its ED50 is 0.144 µM.

And the ED50 (Cullin-1 (Homo sapiens))?
The ED50 was 0.0051 µM.

What about the ED50 [19] of the same compound?
The ED50 was 4.45 µM.

And the ED50 [20]?
The ED50 was 55.3 µM.

And the ED50 [21]?
Its ED50 is 9.45 µM.

And the ED50 [22]?
The ED50 was 11 µM.

What about the ED50 [23] of the same compound?
Its ED50 is 0.175 µM.

And the ED50 [24]?
Its ED50 is 0.0425 µM.

What about the ED50 [25] of the same compound?
Its ED50 is 0.0189 µM.

And the ED50 [26]?
Its ED50 is 68.5 µM.

What about the ED50 [27] of the same compound?
Its ED50 is 8.22 µM.

What about the ED50 [28] of the same compound?
The ED50 was 0.0408 µM.

What about the ED50 [29] of the same compound?
Its ED50 is 3.75 µM.

And the ED50 (Homo sapiens)?
The ED50 was 0.131 µM.

And the ED50 [30]?
Its ED50 is 6.69 µM.

And the ED50 [31]?
Its ED50 is 9 µM.

And the ED50 [32]?
The ED50 was 0.00261 µM.

What about the ED50 [33] of the same compound?
The ED50 was 0.12 µM.

What about the ED50 [34] of the same compound?
The ED50 was 7.98 µM.

And the ED50 [35]?
The ED50 was 0.0517 µM.

And the ED50 [36]?
Its ED50 is 383 µM.

What about the ED50 [37] of the same compound?
The ED50 was 0.394 µM.

And the ED50 [38]?
Its ED50 is 0.0576 µM.

And the ED50 [39]?
The ED50 was 348 µM.

What about the ED50 [40] of the same compound?
Its ED50 is 9770 µM.

And the ED50 [41]?
The ED50 was 17.5 µM.

What about the ED50 [42] of the same compound?
Its ED50 is 0.598 µM.

What about the ED50 [43] of the same compound?
Its ED50 is 1530 µM.

What about the ED50 [44] of the same compound?
Its ED50 is 0.000136 µM.
